Consider eleven compounds from ChEMBL document CHEMBL1201862, “PubChem BioAssay data set” (2004).

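Test compounds were applied to cells in 96-well plates for 48 hours at 5 doses. Abbreviation: GI50, concentration required for 50% inhibition of growth.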 Activity calls are given as the source filed them. No stated cut-off is given here; in the data, active = GI50 up to about 1.1 µM and inactive = higher.

Test systems include SF-268; SR; T47D; SF-295; MDA-N; HOP-62; CCRF-CEM; KM12; SNB-19; SK-OV-3; HCC 2998; MOLT-4; LOX IMVI; SK-MEL-2; 786-0; K562; DU-145; EKVX.
Assay in all cases: growth of human tumour cells (NCI), 48 h

Take `COC(=O)C1=C(OC(=O)/C(=C/c2ccc(Cl)cc2Cl)c2ccc(Cl)cc2Cl)C(C(=O)OC)[C@@]2(O)[C@@H](C(=O)OC)[C@H](C)C[C@@H]1[C@@H]2C(=O)OC` (stereo partly drawn): the GI50 was > 100 µM (inactive) with SF-268; > 100 µM (inactive) in the assay on SR; > 100 µM (inactive) in the assay on T47D; 16.5 µM (inactive) with SF-295; > 100 µM (inactive) with MDA-N; > 100 µM (inactive) in the assay with HOP-62. The GI50 with CCRF-CEM was 88.5 µM (inactive); in the assay on KM12 it was > 100 µM (inactive); in the assay with SNB-19, > 100 µM (inactive); with SK-OV-3 it was > 100 µM (inactive); in the assay with HCC 2998, > 100 µM (inactive); with MOLT-4, > 100 µM (inactive). In addition, the GI50 in the assay on LOX IMVI is > 100 µM (inactive); in the assay on SK-MEL-2, > 100 µM (inactive); in the assay with 786-0 it was > 100 µM (inactive); with K562, > 100 µM (inactive); in the assay on DU-145 it was > 100 µM (inactive); with EKVX it was 47.8 µM (inactive).
Consider `CC1(C)OCC(C2OC(=O)C(OCc3ccccc3)=C2OCc2ccccc2)O1` (stereo not drawn), for which the GI50 with SF-268 was 83.2 µM (inactive); in the assay on SR, 28.4 µM (inactive); in the assay with T47D it was 28.8 µM (inactive); in the assay on SF-295 it was 34 µM (inactive); in the assay with MDA-N it was 38 µM (inactive); in the assay on HOP-62, 81.8 µM (inactive). Also, the GI50 with CCRF-CEM is 37.8 µM (inactive); in the assay with KM12, 32 µM (inactive); in the assay with SNB-19, 55.3 µM (inactive); with SK-OV-3, 52.6 µM (inactive); in the assay on HCC 2998, 36.8 µM (inactive); in the assay with MOLT-4 it was 23 µM (inactive). In addition, the GI50 in the assay with LOX IMVI is 31.2 µM (inactive); in the assay with SK-MEL-2, 23.1 µM (inactive); in the assay with 786-0, 45 µM (inactive); in the assay with K562 it was 27.4 µM (inactive); in the assay with DU-145 it was 81.1 µM (inactive); with EKVX, 37.6 µM (inactive).
Regarding `O=C1c2cccc3cc([N+](=O)[O-])cc(c23)C(=O)N1O`, the GI50 is 85.3 µM (inactive) with SF-268; 24.5 µM (inactive) in the assay on SR; 37.2 µM (inactive) in the assay with T47D; 46.1 µM (inactive) with SF-295; 47 µM (inactive) in the assay on MDA-N; 32.8 µM (inactive) in the assay with HOP-62. Further, the GI50 with CCRF-CEM is 27 µM (inactive); in the assay on KM12, 20.6 µM (inactive); with SNB-19, 43.9 µM (inactive); in the assay with SK-OV-3 it was 46.9 µM (inactive); in the assay on HCC 2998, 25.2 µM (inactive); in the assay on MOLT-4, 28.1 µM (inactive). In addition, the GI50 in the assay with LOX IMVI was 25.9 µM (inactive); in the assay with SK-MEL-2, 32.4 µM (inactive); in the assay with 786-0, 45.2 µM (inactive); with K562 it was 36.8 µM (inactive); in the assay with DU-145, 37.5 µM (inactive); with EKVX it was 47.9 µM (inactive).
`O=c1c2ccccc2sc2cccc(NCCCN3CCN(CCCNc4cccc5sc6ccccc6c(=O)c45)CC3)c12`: the GI50 in the assay on SF-268, with SR, in the assay with T47D, in the assay with SF-295, with MDA-N and with HOP-62 was > 100 µM (inactive) each time. For the same compound, the GI50 in the assay on CCRF-CEM, with KM12, in the assay with SNB-19, with SK-OV-3, in the assay on HCC 2998 and in the assay with MOLT-4 was > 100 µM (inactive) throughout. Further, the GI50 in the assay with LOX IMVI, in the assay with SK-MEL-2, in the assay on 786-0, with K562, with DU-145 and with EKVX was > 100 µM (inactive) each time.
Consider `CC(C)OC(=O)c1ccc(CCc2cc(O)c(Br)cc2O)cc1`, for which the GI50 with SF-268 was 10.1 µM (inactive); with SR, 23.7 µM (inactive); with T47D, 22 µM (inactive); in the assay on SF-295 it was 17.3 µM (inactive); in the assay on MDA-N, 9.55 µM (inactive); in the assay on HOP-62 it was 12.3 µM (inactive). Besides, the GI50 is 3.92 µM (inactive) in the assay on CCRF-CEM; 6.56 µM (inactive) with KM12; 14.8 µM (inactive) in the assay with SNB-19; 16.6 µM (inactive) in the assay with SK-OV-3; 16.1 µM (inactive) in the assay on HCC 2998; 7.94 µM (inactive) in the assay on MOLT-4. The GI50 with LOX IMVI is 8.04 µM (inactive); in the assay with SK-MEL-2 it was 13.1 µM (inactive); with 786-0, 12 µM (inactive); in the assay with K562, 8.65 µM (inactive); in the assay with DU-145 it was 14.4 µM (inactive); with EKVX, 15.3 µM (inactive).
Regarding `Cn1c2c(c3ccccc31)CCN1C(=O)CCC21` (stereo not drawn), the GI50 with SF-268, with SR, in the assay with T47D, with SF-295, in the assay with MDA-N and with HOP-62 was > 10 µM (inactive) throughout. Further, the GI50 with CCRF-CEM, in the assay with KM12, with SNB-19, in the assay on SK-OV-3, in the assay with HCC 2998 and in the assay on MOLT-4 was > 10 µM (inactive) throughout. For the same compound, the GI50 in the assay on LOX IMVI, in the assay with SK-MEL-2, in the assay on 786-0, in the assay on K562, in the assay on DU-145 and in the assay with EKVX was > 10 µM (inactive) each time.
As to `Nc1cc(F)ccc1CC(=O)O`, the GI50 with SF-268, in the assay with SR, in the assay on T47D, in the assay on SF-295, with MDA-N and in the assay with HOP-62 was > 100 µM (inactive) in each case. In addition, the GI50 in the assay with CCRF-CEM, in the assay with KM12, with SNB-19, in the assay on SK-OV-3, in the assay on HCC 2998 and in the assay on MOLT-4 was > 100 µM (inactive) throughout. Moreover, the GI50 in the assay on LOX IMVI, with SK-MEL-2, in the assay with 786-0, in the assay with K562, with DU-145 and in the assay with EKVX was > 100 µM (inactive) in each case.
In the case of `Cc1cc(O)c2c(c1)C(C1c3cccc(O)c3C(=O)c3c(O)cc(C)cc31)c1cccc(O)c1C2=O` (stereo not drawn), the GI50 in the assay on SF-268 is 0.311 µM (active); in the assay on SR, 0.345 µM (active); in the assay with T47D, 0.631 µM (active); in the assay with SF-295, 0.286 µM (active); with MDA-N it was 0.705 µM (active); in the assay with HOP-62, 0.432 µM (active). Moreover, the GI50 in the assay on CCRF-CEM is 0.906 µM (active); with KM12, 0.166 µM (active); in the assay with SNB-19, 0.239 µM (active); in the assay on SK-OV-3 it was 0.356 µM (active); with HCC 2998, 1.1 µM (active); with MOLT-4 it was 0.615 µM (active). In addition, the GI50 in the assay on LOX IMVI was 0.354 µM (active); in the assay with SK-MEL-2 it was 0.294 µM (active); in the assay on 786-0, 0.466 µM (active); with K562 it was 1.02 µM (active); with DU-145 it was 0.4 µM (active); with EKVX, 0.417 µM (active).
Take `Cn1/c(=N\N=C(\CNCCO)[C@@H](O)[C@@H]2OC(c3ccccc3)OC[C@H]2O)sc2ccccc21` (stereo partly drawn): the GI50 with SF-268 is 15.5 µM (inactive); in the assay on SR, 19 µM (inactive); in the assay on T47D, 20.1 µM (inactive); in the assay on SF-295, 18.7 µM (inactive); with MDA-N, 17.6 µM (inactive); in the assay with HOP-62, 17.8 µM (inactive). The GI50 was 17.8 µM (inactive) in the assay on CCRF-CEM; 17.1 µM (inactive) in the assay with KM12; 12.8 µM (inactive) with SNB-19; 18.4 µM (inactive) in the assay on SK-OV-3; 11.3 µM (inactive) in the assay with HCC 2998; 14.9 µM (inactive) with MOLT-4. Further, the GI50 was 15.1 µM (inactive) with LOX IMVI; 17.7 µM (inactive) with SK-MEL-2; 18 µM (inactive) in the assay on 786-0; 14.8 µM (inactive) with K562; 18.5 µM (inactive) with DU-145; 15.4 µM (inactive) with EKVX.
Turning to `CN(C)CCNC(=O)c1ccc(NCCCN(C)CCCNc2ccc3c(=O)n(CCN(C)C)c(=O)n4c5ccccc5c(=O)c2c34)c2c(O)c3ccccc3nc12`, the GI50 in the assay on SF-268 is < 0.01 µM (active); in the assay with SR, < 0.01 µM (active); with T47D, 0.165 µM (active); with SF-295, < 0.01 µM (active); with MDA-N it was 0.0332 µM (active); in the assay with HOP-62 it was < 0.01 µM (active). The GI50 in the assay with CCRF-CEM, in the assay with KM12, with SNB-19, in the assay on SK-OV-3, in the assay with HCC 2998 and in the assay with MOLT-4 was < 0.01 µM (active) in each case. For the same compound, the GI50 in the assay with LOX IMVI was < 0.01 µM (active); in the assay on SK-MEL-2 it was 0.0315 µM (active); in the assay on 786-0, < 0.01 µM (active); in the assay with K562, 0.0324 µM (active); in the assay with DU-145 it was < 0.01 µM (active); in the assay with EKVX, 0.16 µM (active).
In the case of `Sc1ccc2ccccc2c1CNCc1ccccc1`, the GI50 in the assay with SF-268 is 8.47 µM (inactive); in the assay with SR, 3.44 µM (inactive); in the assay with T47D, 19.3 µM (inactive); in the assay on SF-295 it was 19.4 µM (inactive); with MDA-N, 13.2 µM (inactive); with HOP-62, 15.4 µM (inactive). In addition, the GI50 in the assay with CCRF-CEM was 3.72 µM (inactive); with KM12, 13.9 µM (inactive); in the assay on SNB-19, 24.3 µM (inactive); with SK-OV-3, 11.8 µM (inactive); with HCC 2998 it was > 100 µM (inactive); in the assay on MOLT-4 it was 2.25 µM (inactive). Besides, the GI50 in the assay with LOX IMVI was 5.78 µM (inactive); in the assay with SK-MEL-2, 19.7 µM (inactive); in the assay with 786-0, 9.75 µM (inactive); in the assay with K562, 13.3 µM (inactive); in the assay with DU-145, 18.4 µM (inactive); in the assay with EKVX, 22.9 µM (inactive).
